The structures appear in SMILES notation.

This assay deals with T1, human TGR5 (Homo sapiens, UniProt Q8TDU6).
T1 construct: expressed in transfected cells; host or cells: HEK293
T1 sequence (Q8TDU6 1-330): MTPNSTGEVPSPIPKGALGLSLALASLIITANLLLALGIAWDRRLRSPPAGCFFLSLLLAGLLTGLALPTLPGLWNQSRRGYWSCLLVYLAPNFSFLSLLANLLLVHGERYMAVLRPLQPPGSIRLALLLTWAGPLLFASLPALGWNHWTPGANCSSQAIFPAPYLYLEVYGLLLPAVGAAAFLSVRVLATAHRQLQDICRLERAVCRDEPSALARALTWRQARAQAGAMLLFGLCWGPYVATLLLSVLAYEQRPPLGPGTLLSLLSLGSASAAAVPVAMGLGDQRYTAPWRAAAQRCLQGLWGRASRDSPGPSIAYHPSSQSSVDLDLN
The assay is described as follows: Cell-based TGR5 assay (cAMP generation, HTRF). The note with it: HEK293 cells stably transfected with human TGR5; cAMP by HTRF; 30 minutes at 37° C.; read-out: pEC50 Human TGR5 (converted). The method, boiled down: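 Read-out was HTRF detection of cAMP, converted to concentration via a standard curve and fitted (3-parameter logistic) for pEC50 and maximal response. Agonist stimulation used HEK293 cells stably transfected with human TGR5, incubated 30 min at 37° C in IBMX-containing buffer at 0.05 nM to 10 μM compound.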
With `CC(CCCNC(=O)NC[C@H](O)[C@@H](O)[C@H](O)[C@H](O)CO)c1ccc(Cl)c(CNC2(c3cnccc3-c3ccccc3OC3CC3)CC2)c1` (stereo partly drawn) [Compound I-265, 1-(4-{4-chloro-3-[({1-[4-(2-cyclopropoxyphenyl)pyridin-3-yl]cyclopropyl}amino)methyl]phenyl}pentyl)-3-[(2S,3R,4R,5R)-2,3,4,5,6-pentahydroxyhexyl]urea], the EC50 is under 100 nM.

For the compound `CC(CCCCNC(=O)N[C@@H](CO)[C@@H](O)[C@H](O)[C@H](O)CO)c1ccc(Cl)c(CNC2(c3cnccc3-c3ccccc3OC3CC3)CC2)c1` (stereo partly drawn) [Compound I-266, 1-(5-{4-chloro-3-[({1-[4-(2-cyclopropoxyphenyl)pyridin-3-yl]cyclopropyl}amino)methyl]phenyl}hexyl)-3-[(2S,3R,4S,5R)-1,3,4,5,6-pentahydroxyhexan-2-yl]urea], the EC50 is under 100 nM.

In the case of `CC(CCCCNC(=O)NC[C@H](O)[C@@H](O)[C@H](O)[C@H](O)CO)c1ccc(Cl)c(CNC2(c3cnccc3-c3ccccc3OC3CC3)CC2)c1` (stereo partly drawn) [Compound I-267, 1-(5-{4-chloro-3-[({1-[4-(2-cyclopropoxyphenyl)pyridin-3-yl]cyclopropyl}amino)methyl]phenyl}hexyl)-3-[(2S,3R,4R,5R)-2,3,4,5,6-pentahydroxyhexyl]urea], the EC50 is under 100 nM.

Regarding `CC(CCCCCNC(=O)NC[C@H](O)[C@@H](O)[C@H](O)[C@H](O)CO)c1ccc(Cl)c(CNC2(c3cnccc3-c3ccccc3OC3CC3)CC2)c1` (stereo partly drawn) [Compound I-268, 1-(6-{4-chloro-3-[({1-[4-(2-cyclopropoxyphenyl)pyridin-3-yl]cyclopropyl}amino)methyl]phenyl}heptyl)-3-[(2S,3R,4R,5R)-2,3,4,5,6-pentahydroxyhexyl]urea], the EC50 is under 100 nM.

With `CC(CCCCN(C)C(=O)NC[C@H](O)[C@@H](O)[C@H](O)[C@H](O)CO)c1ccc(Cl)c(CNC2(c3cnccc3-c3ccccc3OC3CC3)CC2)c1` (stereo partly drawn) [Compound I-269, 1-(5-{4-chloro-3-[({1-[4-(2-cyclopropoxyphenyl)pyridin-3-yl]cyclopropyl}amino)methyl]phenyl}hexyl)-1-methyl-3-[(2S,3R,4R,5R)-2,3,4,5,6-pentahydroxyhexyl]urea], the EC50 was under 100 nM.

Regarding `CC(CCCCN(CCOCCO)C(=O)NC[C@H](O)[C@@H](O)[C@H](O)[C@H](O)CO)c1ccc(Cl)c(CNC2(c3cnccc3-c3ccccc3OC3CC3)CC2)c1` (stereo partly drawn) [Compound I-270, 1-(5-{4-chloro-3-[({1-[4-(2-cyclopropoxyphenyl)pyridin-3-yl]cyclopropyl}amino)methyl]phenyl}hexyl)-1-[2-(2-hydroxyethoxy)ethyl]-3-[(2S,3R,4R,5R)-2,3,4,5,6-pentahydroxyhexyl]urea], the EC50 was under 100 nM.

As for `Cc1ccc(C(C)CCCNC(=O)NC[C@H](O)[C@@H](O)[C@H](O)[C@H](O)CO)cc1CNC1(c2cnccc2-c2ccccc2OC2CC2)CC1` (stereo partly drawn) [Compound I-271, 1-(4-{3-[({l-[4-(2-cyclopropoxyphenyl)pyridin-3-yl]cyclopropyl}amino)methyl]-4-methylphenyl}pentyl)-3-[(2S,3R,4R,5R)-2,3,4,5,6-pentahydroxyhexyl]urea], the EC50 is under 100 nM.

`Cc1ccc(C(C)CCCCNC(=O)NC[C@H](O)[C@@H](O)[C@H](O)[C@H](O)CO)cc1CNC1(c2cnccc2-c2ccccc2OC2CC2)CC1` (stereo partly drawn) [Compound I-272, 1-(5-{3-[({1-[4-(2-cyclopropoxyphenyl)pyridin-3-yl]cyclopropyl}amino)methyl]-4-methylphenyl}hexyl)-3-[(2S,3R,4R,5R)-2,3,4,5,6-pentahydroxyhexyl]urea]: the EC50 is under 100 nM.

As to `CC(CCCCNC(=O)NC[C@H](O)[C@@H](O)[C@H](O)[C@H](O)CO)c1ccc(Cl)c(COC2(c3cnccc3-c3ccccc3OC3CC3)CC2)c1` (stereo partly drawn) [Compound I-275, 1-{5-[4-chloro-3-({1-[4-(2-cyclopropoxyphenyl)pyridin-3-yl]cyclopropoxy}methyl)phenyl]hexyl}-3-[(2S,3R,4R,5R)-2,3,4,5,6-pentahydroxyhexyl]urea], the EC50 is under 100 nM.

On to `Cc1ccc(C(C)CCCCNC(=O)NC[C@H](O)[C@@H](O)[C@H](O)[C@H](O)CO)cc1COC1(c2cnccc2-c2ccccc2OC2CC2)CC1` (stereo partly drawn) [Compound I-276, 1-{5-[3-({1-[4-(2-cyclopropoxyphenyl)pyridin-3-yl]cyclopropoxy}methyl)-4-methylphenyl]hexyl}-3-[(2S,3R,4R,5R)-2,3,4,5,6-pentahydroxyhexyl]urea], for which the EC50 is under 100 nM.

On to `CC(CCCN(CCN1CCNC1=O)C(=O)[C@@H](O)[C@@H](O)[C@H](O)[C@@H](O)CO)c1ccc(Cl)c(CNC2(c3cnccc3-c3ccccc3OC3CC3)CC2)c1` (stereo partly drawn) [Compound I-277, (2S,3S,4R,5S)-N-(4-{4-chloro-3-[({1-[4-(2-cyclopropoxyphenyl)pyridin-3-yl]cyclopropyl}amino)methyl]phenyl}pentyl)-2,3,4,5,6-pentahydroxy-N-[2-(2-oxoimidazolidin-1-yl)ethyl]hexanamide], for which the EC50 is 126 to 1000 nM.

In the case of `CC(CCCNC(=O)[C@@H](O)[C@@H](O)[C@H](O)[C@@H](O)CO)c1ccc(Cl)c(CNC2(c3cnccc3-c3ccccc3OC3CC3)CC2)c1` (stereo partly drawn) [Compound I-278, (2S,3S,4R,5S)-N-(4-{4-chloro-3-[({1-[4-(2-cyclopropoxyphenyl)pyridin-3-yl]cyclopropyl}amino)methyl]phenyl}pentyl)-2,3,4,5,6-pentahydroxyhexanamide], the EC50 was under 100 nM.

As to `CC(CCCCNC(=O)[C@@H](O)[C@@H](O)[C@H](O)[C@@H](O)CO)c1ccc(Cl)c(CNC2(c3cnccc3-c3ccccc3OC3CC3)CC2)c1` (stereo partly drawn) [Compound I-279, (2S,3S,4R,5S)-N-(5-{4-chloro-3-[({1-[4-(2-cyclopropoxyphenyl)pyridin-3-yl]cyclopropyl}amino)methyl]phenyl}hexyl)-2,3,4,5,6-pentahydroxyhexanamide], the EC50 was under 100 nM.

As for `CC(CCCCCNC(=O)[C@@H](O)[C@@H](O)[C@H](O)[C@@H](O)CO)c1ccc(Cl)c(CNC2(c3cnccc3-c3ccccc3OC3CC3)CC2)c1` (stereo partly drawn) [Compound I-280, (2S,3S,4R,5S)-N-(6-{4-chloro-3-[({1-[4-(2-cyclopropoxyphenyl)pyridin-3-yl]cyclopropyl}amino)methyl]phenyl}heptyl)-2,3,4,5,6-pentahydroxyhexanamide], the EC50 was under 100 nM.

With `CC(CCCCN(C)C(=O)[C@@H](O)[C@@H](O)[C@H](O)[C@@H](O)CO)c1ccc(Cl)c(CNC2(c3cnccc3-c3ccccc3OC3CC3)CC2)c1` (stereo partly drawn) [Compound I-281, (2S,3S,4R,5S)-N-(5-{4-chloro-3-[({1-[4-(2-cyclopropoxyphenyl)pyridin-3-yl]cyclopropyl}amino)methyl]phenyl}hexyl)-2,3,4,5,6-pentahydroxy-N-methylhexanamide], the EC50 is under 100 nM.

On to `COCCN(CCCC(C)c1ccc(Cl)c(CNC2(c3cnccc3-c3ccccc3OC3CC3)CC2)c1)C(=O)[C@@H](O)[C@@H](O)[C@H](O)[C@@H](O)CO` (stereo partly drawn) [Compound I-282, (2S,3S,4R,5S)-N-(4-{4-chloro-3-[({1-[4-(2-cyclopropoxyphenyl)pyridin-3-yl]cyclopropyl}amino)methyl]phenyl}pentyl)-2,3,4,5,6-pentahydroxy-N-(2-methoxyethyl)hexanamide], for which the EC50 is under 100 nM.

Values taken from US12084472B2 (Ardelyx, Inc., priority 2015, dated 2024).
